Reference: PMC8398714, “Synthesis and Evaluation of Biological Activities of Bis(spiropyrazolone)cyclopropanes: A Potential Application against Leishmaniasis” (Molecules, 2021)
Several values for one entry are separate records, joined by “and”; a condition that tells them apart may be missing. Identical values can stand only once. Entries after “also recorded” stand apart in the source; their conditions may differ.

Legend:
[1] = test system: RKO; assay: MTS cell viability assay on RKO cells; type: cell-based; settings: Homo sapiens, 48 h; for inhibition at 100 µM: Dox 1 µM, mean ± SEM, NA = no activity, read-out: Percentage (%) of inhibition, RKO; for IC50: 15-150 µM, mean ± SEM of triplicates
Protocol: (§1) Five tumor human cancer cell lines—cerebral astrocytoma (D-384), grade IV prostatic adenocarcinoma (PC-3), mammary adenocarcinoma (MCF-7), human colon carcinoma (RKO) and lung carcinoma (A-549)—along with one immortalized hamster cell line (CHO K-1) were used. The cells PC-3, MCF-7 and RKO were cultured in RPMI-1640, D-384 on DMEM and CHO K-1 on HAM F-12 medium supplemented with 10% fetal bovine serum (FBS, Invitrogen, Karlsruhe, Germany), 1% antibiotic-antimitotic solution (100 units/mL penicillin G, 100 µg/mL streptomycin, and 0.25 µg/mL amphotericin B, Gibco, Grand Island, NY, USA), and 1% L-glutamine (2 mM, Gibco). The cells were incubated at 37 °C in a 5% CO2 atmosphere. The viable cells were counted using the trypan blue exclusion method in a hemocytometer.
(§2) The MTS (5-[3-(carboxymethoxy)phenyl]-3-(4,5-dimethyl-2-thiazolyl)-2-(4-sulfo- phenyl)-2H-tetrazolium inner salt) cell viability assay was used to assess the inhibitory effects of the extracts on the survival of human cancer cell lines. A total of 3–5 × 10^3 cells/well were seeded into 96-well plates and were allowed to adhere for 24 h. […] Each concentration/assay was performed three times. Dimethyl sulfoxide (DMSO) was used as a negative control at a final concentration of 0.1% v/v, and 1 µM Doxorubicin was used as a positive control. The cells were incubated with the treatments for 48 h, after which 20 µL MTS (5 mg/mL, Aqueous One Solution Reagent, Gibco) was added and further incubated for 4 h at 37 °C. The absorbance was measured at 570 nm. The data obtained with cells treated with DMSO were defined to represent 100% viability.

[2] = test system: Leishmania mexicana cells; assay: Comet assay of Leishmania mexicana cells; type: cell-based; design: Comet tail length, mean (vary) / Comet tail length, median (Q50): unit not given here; settings: L. mexicana, 24 h at MIC; for Comet tail length, mean (vary) / Comet tail length, median (Q50): MMS 0.011%, Kruskal-Wallis $means; for Genotoxic effect (DNA breaks) in comet assay: in words
Protocol: We quantified DNA breaks by a comet assay to determine if these compounds are genotoxic. Here, L. mexicana cells were exposed for 24 h to MIC concentrations previously determined (see Materials and Methods Section) for each compound. Figure 1 represents the measurements obtained for tail length. All compounds generated DNA breaks expect 4s. […] Samples with DMSO and MMS (0.011%) were included as controls. Some representative pictures are shown at Figure S4. The effect of 4p could not be determined because the cells appear to be very damaged. The data was subjected via a Kruskal–Wallis one-way ANOVA (Statistical Analyses S2). […] These observations support a mechanism of action through the generation of DNA damage.
For leishmania, a method previously described for yeast was adapted. Briefly, after incubating the cells in presence of the compounds for 24 h, cells were collected and washed with buffer S (1 M sorbitol, 25 mM KH2PO4 in ultrapure water and adjust to pH 6.5 with NaOH). The pellet was resuspended in 400 µL of 1.5% LMA and 40 µL was spread (second layer) onto previously agarose-coated slides (first layer).
Slides were immersed in cold lysis buffer (30 mM NaOH, 1 M NaCl, 0.05 % (w/v) lauroylsarcosine, 50 mM EDTA, and 10 mM Tris–HCl, pH 10) for 25 min and then in cold electrophoresis alkaline buffer (30 mM NaOH, 10 mM EDTA, and 10 mM Tris–HCl, pH 10). They were then subjected to electrophoresis at 26V and 300 mA. Slides were immersed in neutralization buffer (10 mM Tris–HCl, pH 7.4; prepared in advance and stored at 4 °C) for 10 min at room temperature. The cells were then treated with proteinase K (20 min, 37 °C in humid chamber), followed by a new neutralization step. To dehydrate the slides, they were immersed in EtOH 90% and EtOH absolute for 10 min each. Finally, the slides were stained with Sybr Gold 1X.
The DNA migration was analyzed using a LEICA microscope with fluorescence (40×) by scoring 100 cells per slide in duplicate. The tail moment parameter was then analyzed by the Comet Score software.

[3] = DPPH radical scavenging assay; settings: 30 min, 515 nm
Protocol: The stock solution of the compounds was prepared by dissolving 4 in dimethyl sulfoxide (DMSO) to a concentration of 4 mg/mL. The solution was diluted with methanol until a concentration of 400 µg/mL was obtained and then used immediately.
The experimental procedure was adapted from the literature. Briefly, 100 µL of a 0.2 mM methanol solution of DPPH (2, 2-diphenyl-1-picrylhydrazyl) radical were added to 100 µL of methanolic solutions of 4 prepared as serial two-fold dilutions from the stock solution in 96-well microfilter plates. Standards and edaravone were also prepared in the same concentrations. The mixture was incubated in dark at room temperature for 30 min and the absorbance was read at 515 nm on a Cytation 5 (BioTek) spectrophotometer.
The % DPPH scavenging activity was then calculated by using the following formula:(1) % DPPH scavenging = 100 × [(Asample+DPPH−Asample blank)/(ADPPH−Asolvent)]
The antioxidant activity of the compound was expressed as IC50, which is defined as the concentration that could scavenge 50% of the DPPH free radical. The IC50 values were calculated in GraphPad Prism 7.02 (GraphPad Software, Corp.) The results are given as a mean ± standard deviation (SD) of experiments done in triplicate.

[4] = test system: A-549; assay: MTS cell viability assay on A-549 cells; type: cell-based; settings: Homo sapiens, A549; 100 µM, 48 h; Dox 1 µM; mean ± SEM; NA = no activity; read-out: Percentage (%) of inhibition, A-549
Protocol: as §1, §2

[5] = test system: HeLa; assay: MTS cell viability assay on HeLa cells; type: cell-based; settings: Homo sapiens, 48 h, Dox 1 µM, mean ± SEM, NA = no activity, read-out: Percentage (%) of inhibition, HeLa

| Structure (SMILES) | inhibition at 100 µM [1] [%] | Comet tail length, mean (vary) [2] | Comet tail length, median (Q50) [2] | IC50 [3] | melting point | inhibition at 100 µM [4] [%] | inhibition at 100 µM [5] [%] | IC50 [1] [µM] | Genotoxic effect (DNA breaks) in comet assay [2] |
| --- | --- | --- | --- | --- | --- | --- | --- | --- | --- |
| CC1=NN(c2ccccc2)C(=O)[C@@]12C(c1ccccc1)[C@@]21C(=O)N(c2ccccc2)N=C1C (relative stereo) [4b, (5R*,6R*)-4,10-Dimethyl-2,8,11-triphenyl-2,3,8,9-tetraazadispiro[4.0.4.1]undeca-3,9-diene-1,7-dione] | 21.7 ± 2.37 | 50400000 | 55000000 | > 300 µM | 129 to 130 °C |  |  |  |  |
| CC1=NN(c2ccccc2)C(=O)[C@@]12C(c1ccccc1[N+](=O)[O-])[C@@]21C(=O)N(c2ccccc2)N=C1C (relative stereo) [4c, (5R*,6R*)-11-(2-Nitrophenyl)-4,10-dimethyl-2,8-diphenyl-2,3,8,9-tetraazadispiro[4.0.4.1]undeca-3,9-diene-1,7-dione] | 37.3 ± 1.22 | 70710000 | 72500000 | > 300 µM | 165.1 to 165.5 °C | 6.1 ± 0.86 | 24.8 ± 1.74 |  |  |
| CC1=NN(c2ccccc2)C(=O)[C@@]12C(c1cccc([N+](=O)[O-])c1)[C@@]21C(=O)N(c2ccccc2)N=C1C (relative stereo) [4d, (5R*,6R*)-11-(3-Nitrophenyl)-4,10-dimethyl-2,8-diphenyl-2,3,8,9-tetraazadispiro[4.0.4.1]undeca-3,9-diene-1,7-dione] | 68.9 ± 1.72 | 75120000 | 83500000 | > 300 µM | 183.9 to 185 °C | 13.6 ± 0.74 | 48.6 ± 4.91 | 94 ± 4.09 |  |
| COc1ccc(C2[C@@]3(C(=O)N(c4ccccc4)N=C3C)[C@]23C(=O)N(c2ccccc2)N=C3C)cc1 (relative stereo) [4e, (5R*,6R*)-11-(4-Methoxyphenyl)-4,10-dimethyl-2,8-diphenyl-2,3,8,9-tetraazadispiro[4.0.4.1]undeca-3,9-diene-1,7-dione] | 36.8 ± 1.55 | 65120000 | 64500000 | > 300 µM | 163.5 to 165.7 °C | 7.97 ± 1.46 | 47.8 ± 2.45 |  |  |
| COc1ccccc1C1[C@@]2(C(=O)N(c3ccccc3)N=C2C)[C@]12C(=O)N(c1ccccc1)N=C2C (relative stereo) [4f, (5R*,6R*)-11-(2-Methoxyphenyl)-4,10-dimethyl-2,8-diphenyl-2,3,8,9-tetraazadispiro[4.0.4.1]undeca-3,9-diene-1,7-dione] | 28.7 ± 0.29 | 75100000 | 80500000 | > 300 µM | 147.8 to 149 °C | 10.4 ± 3.28 |  |  |  |
| CC1=NN(c2ccccc2)C(=O)[C@@]12C(c1ccc([N+](=O)[O-])cc1)[C@@]21C(=O)N(c2ccccc2)N=C1C (relative stereo) [4k, (5R*,6R*)-11-(4-Nitrophenyl)-4,10-dimethyl-2,8-diphenyl-2,3,8,9-tetraazadispiro[4.0.4.1]undeca-3,9-diene-1,7-dione] | 67.6 ± 0.77 | 142780000 | 128000000 | 234 µM and < 300 µM | 145.3 to 152.9 °C (dec.) | 26.7 ± 3.03 | 47.2 ± 1.36 | 84 ± 9.46 | biggest genotoxic effects; also recorded: strongest effects |
| COC(=O)c1ccc(C2[C@@]3(C(=O)N(c4ccccc4)N=C3C)[C@]23C(=O)N(c2ccccc2)N=C3C)cc1 (relative stereo) [4q, (5R*,6R*)-Methyl-4[4,10-dimethyl-2,8-diphenyl-2,3,8,9-tetraazadispiro[4.0.4.1]undeca-3,9-diene-1,7-dione-11-yl]benzoate] | 62.9 ± 1.53 | 172025000 | 177500000 | > 300 µM | 162.5 to 163.9 °C | 13 ± 1.99 | 31.7 ± 1.52 | 102 ± 7.8 | highest genotoxic activity; also recorded: strongest effects |
